Data reported in PubChem BioAssay (NCI).
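Briefly, cells in 96-well plates were exposed to five compound concentrations for 48 h, and endpoints were estimated by linear interpolation. The concentration for 50% growth inhibition is given as GI50. Definition used: TGI = concentration required for complete inhibition of growth.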

What was measured:
Assay in all cases: NCI tumour cell line growth inhibition, 48 h
TK-10 renal = tested on: TK-10 renal
NCI-H522 lung = tested on: NCI-H522 lung
NCI/ADR-RES ovarian = tested on: NCI/ADR-RES ovarian
MOLT-4 leukemia = tested on: MOLT-4 leukemia
HOP-92 NSCLC = tested on: HOP-92 NSCLC
OVCAR-4 ovarian = tested on: OVCAR-4 ovarian
SK-OV-3 ovarian = tested on: SK-OV-3 ovarian
HT29 colon = tested on: HT29 colon
HCC-2998 colon = tested on: HCC-2998 colon
NCI-H23 lung = tested on: NCI-H23 lung
DU-145 prostate = tested on: DU-145 prostate
SN12C renal = tested on: SN12C renal
K-562 leukemia = tested on: K-562 leukemia
SK-MEL-2 melanoma = tested on: SK-MEL-2 melanoma
IGROV1 ovarian = tested on: IGROV1 ovarian
HS 578T breast = tested on: HS 578T breast
SK-MEL-5 melanoma = tested on: SK-MEL-5 melanoma
HL-60(TB) leukemia = tested on: HL-60(TB) leukemia
RXF 393 renal = tested on: RXF 393 renal
T-47D breast = tested on: T-47D breast
LOX IMVI melanoma = tested on: LOX IMVI melanoma
EKVX NSCLC = tested on: EKVX NSCLC
UACC-257 melanoma = tested on: UACC-257 melanoma
SR leukemia = tested on: SR leukemia
SW-620 colon = tested on: SW-620 colon
KM12 colon = tested on: KM12 colon
SF-295 CNS = tested on: SF-295 CNS
UACC-62 melanoma = tested on: UACC-62 melanoma
MDA-MB-435 = tested on: MDA-MB-435
786-0 renal = tested on: 786-0 renal
PC-3 prostate = tested on: PC-3 prostate
OVCAR-5 ovarian = tested on: OVCAR-5 ovarian
CAKI-1 renal = tested on: CAKI-1 renal
HCT-116 colon = tested on: HCT-116 colon
ACHN renal = tested on: ACHN renal
HOP-62 NSCLC = tested on: HOP-62 NSCLC
MALME-3M melanoma = tested on: MALME-3M melanoma
BT-549 breast = tested on: BT-549 breast
COLO 205 colon = tested on: COLO 205 colon
HCT-15 colon = tested on: HCT-15 colon
RPMI-8226 leukemia = tested on: RPMI-8226 leukemia
MDA-MB-231 breast = tested on: MDA-MB-231 breast
SF-268 CNS = tested on: SF-268 CNS
A549 NSCLC = tested on: A549 NSCLC
CCRF-CEM leukemia = tested on: CCRF-CEM leukemia
UO-31 renal = tested on: UO-31 renal
SF-539 CNS = tested on: SF-539 CNS
U251 CNS = tested on: U251 CNS
SK-MEL-28 melanoma = tested on: SK-MEL-28 melanoma
SNB-75 CNS = tested on: SNB-75 CNS
A498 renal = tested on: A498 renal
NCI-H460 lung = tested on: NCI-H460 lung
OVCAR-8 ovarian = tested on: OVCAR-8 ovarian
M14 melanoma = tested on: M14 melanoma
OVCAR-3 ovarian = tested on: OVCAR-3 ovarian
MCF7 breast = tested on: MCF7 breast
SNB-19 CNS = tested on: SNB-19 CNS

COC(=O)CCC/C=C\C[C@H]1C=CC(=O)/C1=C/C[C@@H](O)CCc1cccc(C(F)(F)F)c1
GI50 (TK-10 renal): 4.49 µM
TGI (TK-10 renal): 12.4 µM
GI50 (NCI-H522 lung): 2.02 µM
TGI (NCI-H522 lung): 5.57 µM
GI50 (NCI/ADR-RES ovarian): 2.81 µM
TGI (NCI/ADR-RES ovarian): 10.9 µM
GI50 (MOLT-4 leukemia): 2.29 µM
TGI (MOLT-4 leukemia): 6.46 µM
GI50 (HOP-92 NSCLC): 3.1 µM
TGI (HOP-92 NSCLC): 7.94 µM
GI50 (OVCAR-4 ovarian): 3.47 µM
TGI (OVCAR-4 ovarian): 14.1 µM
GI50 (SK-OV-3 ovarian): 4.94 µM
TGI (SK-OV-3 ovarian): 16.5 µM
GI50 (HT29 colon): 2.64 µM
TGI (HT29 colon): 6.06 µM
GI50 (HCC-2998 colon): 1.83 µM
TGI (HCC-2998 colon): 3.35 µM
GI50 (NCI-H23 lung): 2.03 µM
TGI (NCI-H23 lung): 5.18 µM
GI50 (DU-145 prostate): 2.59 µM
TGI (DU-145 prostate): 10 µM
GI50 (SN12C renal): 4.2 µM
TGI (SN12C renal): 16.9 µM
GI50 (K-562 leukemia): 2.23 µM
TGI (K-562 leukemia): 7.98 µM
GI50 (SK-MEL-2 melanoma): 3.19 µM
TGI (SK-MEL-2 melanoma): 11.5 µM
GI50 (IGROV1 ovarian): 3.71 µM
TGI (IGROV1 ovarian): 13.9 µM
GI50 (HS 578T breast): 12.2 µM
TGI (HS 578T breast): 50 µM
GI50 (SK-MEL-5 melanoma): 1.73 µM
TGI (SK-MEL-5 melanoma): 3.2 µM
GI50 (HL-60(TB) leukemia): 2.53 µM
TGI (HL-60(TB) leukemia): 7.17 µM
GI50 (RXF 393 renal): 2.08 µM
TGI (RXF 393 renal): 3.79 µM
GI50 (T-47D breast): 3.45 µM
TGI (T-47D breast): 17 µM
GI50 (LOX IMVI melanoma): 0.955 µM
TGI (LOX IMVI melanoma): 2.24 µM
GI50 (EKVX NSCLC): 4.52 µM
TGI (EKVX NSCLC): 16.4 µM
GI50 (UACC-257 melanoma): 2.48 µM
TGI (UACC-257 melanoma): 7.49 µM
GI50 (SR leukemia): 0.975 µM
TGI (SR leukemia): 5.53 µM
GI50 (SW-620 colon): 3.28 µM
TGI (SW-620 colon): 10.6 µM
GI50 (KM12 colon): 1.9 µM
TGI (KM12 colon): 4.23 µM
GI50 (SF-295 CNS): 2.12 µM
TGI (SF-295 CNS): 5.21 µM
GI50 (UACC-62 melanoma): 2.16 µM
TGI (UACC-62 melanoma): 5.48 µM
GI50 (MDA-MB-435): 2.01 µM
TGI (MDA-MB-435): 6.15 µM
GI50 (786-0 renal): 2.46 µM
TGI (786-0 renal): 5.57 µM
GI50 (PC-3 prostate): 2.63 µM
TGI (PC-3 prostate): 7.6 µM
GI50 (OVCAR-5 ovarian): 3.79 µM
TGI (OVCAR-5 ovarian): 12.7 µM
GI50 (CAKI-1 renal): 3.89 µM
TGI (CAKI-1 renal): 14.7 µM
GI50 (HCT-116 colon): 1.78 µM
TGI (HCT-116 colon): 4 µM
GI50 (ACHN renal): 1.83 µM
TGI (ACHN renal): 3.54 µM
GI50 (HOP-62 NSCLC): 3.32 µM
TGI (HOP-62 NSCLC): 9.15 µM
GI50 (MALME-3M melanoma): 2.47 µM
TGI (MALME-3M melanoma): 8.1 µM
GI50 (BT-549 breast): 2.68 µM
TGI (BT-549 breast): 9.25 µM
GI50 (COLO 205 colon): 2.39 µM
TGI (COLO 205 colon): 5.85 µM
GI50 (HCT-15 colon): 1.67 µM
TGI (HCT-15 colon): 4.18 µM
GI50 (RPMI-8226 leukemia): 2.85 µM
TGI (RPMI-8226 leukemia): 14 µM
GI50 (MDA-MB-231 breast): 4.65 µM
TGI (MDA-MB-231 breast): 17.1 µM
GI50 (SF-268 CNS): 3.09 µM
TGI (SF-268 CNS): 11.4 µM
GI50 (A549 NSCLC): 3.55 µM
TGI (A549 NSCLC): 12.2 µM
GI50 (CCRF-CEM leukemia): 1.09 µM
TGI (CCRF-CEM leukemia): 12 µM
GI50 (UO-31 renal): 1.73 µM
TGI (UO-31 renal): 3.29 µM
GI50 (SF-539 CNS): 2.9 µM
TGI (SF-539 CNS): 9.24 µM
GI50 (U251 CNS): 2.06 µM
TGI (U251 CNS): 4.96 µM
GI50 (SK-MEL-28 melanoma): 1.98 µM
TGI (SK-MEL-28 melanoma): 5.2 µM
GI50 (SNB-75 CNS): 5.46 µM
TGI (SNB-75 CNS): 18.9 µM
GI50 (A498 renal): 5.93 µM
TGI (A498 renal): 18.2 µM
GI50 (NCI-H460 lung): 2.35 µM
TGI (NCI-H460 lung): 5.57 µM
GI50 (OVCAR-8 ovarian): 3.31 µM
TGI (OVCAR-8 ovarian): 11.8 µM
GI50 (M14 melanoma): 2.1 µM
TGI (M14 melanoma): 6.07 µM
GI50 (OVCAR-3 ovarian): 1.97 µM
TGI (OVCAR-3 ovarian): 4.08 µM
GI50 (MCF7 breast): 0.775 µM
TGI (MCF7 breast): 12.9 µM
GI50 (SNB-19 CNS): 4.04 µM
TGI (SNB-19 CNS): 16.6 µM
